From the kinase profiling compilation of Christmann-Franck et al. (2016)

Assays:
Test in all cases: radiometric filter-binding kinase assay, Kinase HotSpot
Conditions in all cases: compound 0.5 µM; ATP 10 µM
CSNK1D (human) = CSNK1D (human) (UniProt P48730)
CAMK4 (human) = CAMK4 (human) (UniProt Q16566)
FLT3 (human) = FLT3 (human) (UniProt P36888)
CDK4 CCND3 (human) = CDK4 CCND3 (human) (UniProt P30281+P11802)
AXL (human) = AXL (human) (UniProt P30530)
MAP3K11 (human) = MAP3K11 (human) (UniProt Q16584)
HIPK4 (human) = HIPK4 (human) (UniProt Q8NE63)
JAK3 JH1 JH2 (human) = JAK3 JH1 JH2 (human) (UniProt P52333)
INSRR (human) = INSRR (human) (UniProt P14616)
EGFR (human) = EGFR (human) (UniProt P00533)
TYRO3 (human) = TYRO3 (human) (UniProt Q06418)
CDK6 CCND1 (human) = CDK6 CCND1 (human) (UniProt Q00534+P24385)
PRKD1 (human) = PRKD1 (human) (UniProt Q15139)
[1] = system: PRKCQ (human), Q04759 [P330L]
CDC42BPB (human) = CDC42BPB (human) (UniProt Q9Y5S2)
STK11 (human) = STK11 (human) (UniProt Q15831)
CHUK (human) = CHUK (human) (UniProt O15111)
MAPKAPK2 (human) = MAPKAPK2 (human) (UniProt P49137)
LTK (human) = LTK (human) (UniProt P29376)
YES1 (human) = YES1 (human) (UniProt P07947)
CLK2 (human) = CLK2 (human) (UniProt P49760)
MAP3K3 (human) = MAP3K3 (human) (UniProt Q99759)
CAMK1G (human) = CAMK1G (human) (UniProt Q96NX5)
STK10 (human) = STK10 (human) (UniProt O94804)
ABL1 (human) = ABL1 (human) (UniProt P00519)
CHEK2 (human) = CHEK2 (human) (UniProt O96017)
CLK3 (human) = CLK3 (human) (UniProt P49761)
PRKCD (human) = PRKCD (human) (UniProt Q05655)
AURKC (human) = AURKC (human) (UniProt Q9UQB9)
SRPK3 (human) = SRPK3 (human) (UniProt Q9UPE1)
TGFBR1 (human) = TGFBR1 (human) (UniProt P36897)
MAP2K2 (human) = MAP2K2 (human) (UniProt P36507)
CDK9 CCNT1 (human) = CDK9 CCNT1 (human) (UniProt P50750+O60563)
TBK1 (human) = TBK1 (human) (UniProt Q9UHD2)
EPHA5 (human) = EPHA5 (human) (UniProt P54756)
DSTYK (human) = DSTYK (human) (UniProt Q6XUX3)
PDGFRA (human) = PDGFRA (human) (UniProt P16234)
PRKX (human) = PRKX (human) (UniProt P51817)
CSNK1G3 (human) = CSNK1G3 (human) (UniProt Q9Y6M4)
PRKG2 (human) = PRKG2 (human) (UniProt Q13237)
EPHA7 (human) = EPHA7 (human) (UniProt Q15375)
MAPK9 (human) = MAPK9 (human) (UniProt P45984)

Sequence of PRKCQ (human), Q04759 [P330L] (Q04759 whole entry P330L, looked up): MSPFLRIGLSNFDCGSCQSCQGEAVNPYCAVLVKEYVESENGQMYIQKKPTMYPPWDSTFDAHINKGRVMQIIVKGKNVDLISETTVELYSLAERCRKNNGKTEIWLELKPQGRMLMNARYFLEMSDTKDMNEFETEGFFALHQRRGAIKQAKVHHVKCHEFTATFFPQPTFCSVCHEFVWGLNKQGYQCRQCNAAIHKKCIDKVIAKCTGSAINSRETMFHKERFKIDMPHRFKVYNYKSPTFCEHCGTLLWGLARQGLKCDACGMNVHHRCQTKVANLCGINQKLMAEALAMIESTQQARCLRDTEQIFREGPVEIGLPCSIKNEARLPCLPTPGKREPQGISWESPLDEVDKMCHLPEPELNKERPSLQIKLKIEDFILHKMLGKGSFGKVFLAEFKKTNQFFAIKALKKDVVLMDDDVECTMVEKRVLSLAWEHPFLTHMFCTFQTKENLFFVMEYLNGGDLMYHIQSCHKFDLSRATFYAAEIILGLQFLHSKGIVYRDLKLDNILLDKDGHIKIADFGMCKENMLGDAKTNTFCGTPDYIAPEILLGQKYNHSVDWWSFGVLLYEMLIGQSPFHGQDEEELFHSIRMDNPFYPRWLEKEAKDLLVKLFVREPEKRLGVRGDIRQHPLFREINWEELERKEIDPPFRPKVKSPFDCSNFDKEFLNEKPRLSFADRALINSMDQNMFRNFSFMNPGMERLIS
Sequence of SRPK3 (human) (Q9UPE1 whole entry, looked up): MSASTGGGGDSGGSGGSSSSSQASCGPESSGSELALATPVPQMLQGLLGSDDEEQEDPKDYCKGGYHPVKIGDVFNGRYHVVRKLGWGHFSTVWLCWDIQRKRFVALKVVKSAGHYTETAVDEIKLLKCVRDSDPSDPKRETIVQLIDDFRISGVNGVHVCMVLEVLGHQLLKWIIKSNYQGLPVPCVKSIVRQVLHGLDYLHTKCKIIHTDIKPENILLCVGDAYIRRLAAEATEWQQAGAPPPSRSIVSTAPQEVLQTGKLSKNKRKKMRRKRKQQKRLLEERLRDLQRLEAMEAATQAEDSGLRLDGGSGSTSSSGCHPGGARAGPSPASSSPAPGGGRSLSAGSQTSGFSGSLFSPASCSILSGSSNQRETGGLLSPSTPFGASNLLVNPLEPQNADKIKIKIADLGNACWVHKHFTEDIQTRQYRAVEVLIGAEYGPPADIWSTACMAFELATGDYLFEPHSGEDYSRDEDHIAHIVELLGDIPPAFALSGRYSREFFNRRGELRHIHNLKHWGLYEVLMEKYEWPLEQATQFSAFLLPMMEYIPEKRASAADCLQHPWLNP
Sequence of HIPK4 (human) (Q8NE63 whole entry, looked up): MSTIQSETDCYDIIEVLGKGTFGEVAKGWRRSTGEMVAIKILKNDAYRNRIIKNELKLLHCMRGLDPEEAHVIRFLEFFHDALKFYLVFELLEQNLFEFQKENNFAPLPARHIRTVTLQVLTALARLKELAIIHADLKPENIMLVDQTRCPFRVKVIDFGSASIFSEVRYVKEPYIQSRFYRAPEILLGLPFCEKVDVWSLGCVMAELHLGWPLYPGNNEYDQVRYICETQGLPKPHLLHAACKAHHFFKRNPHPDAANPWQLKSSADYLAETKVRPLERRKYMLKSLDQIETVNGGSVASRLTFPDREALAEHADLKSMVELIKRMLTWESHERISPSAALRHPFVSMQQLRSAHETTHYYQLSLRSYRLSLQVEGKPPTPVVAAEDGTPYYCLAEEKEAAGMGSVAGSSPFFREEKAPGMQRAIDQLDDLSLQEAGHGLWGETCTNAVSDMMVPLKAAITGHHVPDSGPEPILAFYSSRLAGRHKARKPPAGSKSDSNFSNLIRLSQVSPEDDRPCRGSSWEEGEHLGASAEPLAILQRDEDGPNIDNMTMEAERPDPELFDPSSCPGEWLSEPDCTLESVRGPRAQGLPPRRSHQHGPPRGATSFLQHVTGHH
Sequence of EPHA7 (human) (Q15375 whole entry, looked up): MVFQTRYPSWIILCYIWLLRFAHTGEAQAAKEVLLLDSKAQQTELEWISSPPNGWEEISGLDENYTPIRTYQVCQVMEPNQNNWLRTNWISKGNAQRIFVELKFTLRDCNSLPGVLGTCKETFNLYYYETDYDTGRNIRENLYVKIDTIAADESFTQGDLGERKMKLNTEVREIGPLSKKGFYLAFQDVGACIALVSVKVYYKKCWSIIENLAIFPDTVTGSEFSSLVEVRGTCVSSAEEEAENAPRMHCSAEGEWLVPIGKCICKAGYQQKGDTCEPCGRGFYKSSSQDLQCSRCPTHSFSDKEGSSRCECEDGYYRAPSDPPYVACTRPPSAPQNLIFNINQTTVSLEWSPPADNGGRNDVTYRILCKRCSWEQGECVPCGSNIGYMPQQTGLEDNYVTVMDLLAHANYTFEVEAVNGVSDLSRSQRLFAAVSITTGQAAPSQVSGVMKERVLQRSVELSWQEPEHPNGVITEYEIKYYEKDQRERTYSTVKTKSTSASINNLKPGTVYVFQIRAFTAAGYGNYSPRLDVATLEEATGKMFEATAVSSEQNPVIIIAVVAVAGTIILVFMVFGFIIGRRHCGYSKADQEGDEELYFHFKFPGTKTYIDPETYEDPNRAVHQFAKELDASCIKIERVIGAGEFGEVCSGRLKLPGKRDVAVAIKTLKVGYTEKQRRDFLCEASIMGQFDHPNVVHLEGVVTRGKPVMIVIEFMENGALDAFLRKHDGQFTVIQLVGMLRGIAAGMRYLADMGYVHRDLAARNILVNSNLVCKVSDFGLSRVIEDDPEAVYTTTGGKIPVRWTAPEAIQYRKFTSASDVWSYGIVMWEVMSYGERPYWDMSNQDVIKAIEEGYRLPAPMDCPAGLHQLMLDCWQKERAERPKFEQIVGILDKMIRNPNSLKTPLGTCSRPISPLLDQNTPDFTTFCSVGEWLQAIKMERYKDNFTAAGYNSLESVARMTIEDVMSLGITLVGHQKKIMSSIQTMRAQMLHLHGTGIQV
Sequence of FLT3 (human) (P36888 whole entry, looked up): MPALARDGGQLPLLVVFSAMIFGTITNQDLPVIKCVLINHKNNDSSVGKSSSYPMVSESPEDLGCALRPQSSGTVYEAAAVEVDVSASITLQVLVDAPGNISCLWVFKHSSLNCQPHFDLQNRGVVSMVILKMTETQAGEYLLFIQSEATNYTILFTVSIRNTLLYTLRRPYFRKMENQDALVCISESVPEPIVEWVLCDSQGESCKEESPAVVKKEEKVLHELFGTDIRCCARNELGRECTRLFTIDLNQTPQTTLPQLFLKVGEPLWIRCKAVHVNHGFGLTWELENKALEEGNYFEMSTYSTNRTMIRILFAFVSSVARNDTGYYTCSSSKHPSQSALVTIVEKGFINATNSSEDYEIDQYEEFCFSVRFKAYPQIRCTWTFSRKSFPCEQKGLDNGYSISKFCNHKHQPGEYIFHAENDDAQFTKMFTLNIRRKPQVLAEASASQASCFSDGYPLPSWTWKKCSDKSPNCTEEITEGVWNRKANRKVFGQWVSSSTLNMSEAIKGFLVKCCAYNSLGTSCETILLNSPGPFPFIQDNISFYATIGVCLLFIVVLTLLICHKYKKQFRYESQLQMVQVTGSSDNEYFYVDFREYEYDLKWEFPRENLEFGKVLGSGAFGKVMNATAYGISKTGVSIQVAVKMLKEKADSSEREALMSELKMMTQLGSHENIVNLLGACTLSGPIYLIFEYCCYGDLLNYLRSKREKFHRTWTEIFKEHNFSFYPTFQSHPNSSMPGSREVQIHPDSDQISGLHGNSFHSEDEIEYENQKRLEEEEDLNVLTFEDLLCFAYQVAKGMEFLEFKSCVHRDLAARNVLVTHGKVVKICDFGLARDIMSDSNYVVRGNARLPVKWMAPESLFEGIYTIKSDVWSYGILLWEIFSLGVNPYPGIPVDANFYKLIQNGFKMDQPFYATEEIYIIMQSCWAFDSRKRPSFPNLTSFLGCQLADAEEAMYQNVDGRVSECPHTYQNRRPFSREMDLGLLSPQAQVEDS
Sequence of CLK2 (human) (P49760 whole entry, looked up): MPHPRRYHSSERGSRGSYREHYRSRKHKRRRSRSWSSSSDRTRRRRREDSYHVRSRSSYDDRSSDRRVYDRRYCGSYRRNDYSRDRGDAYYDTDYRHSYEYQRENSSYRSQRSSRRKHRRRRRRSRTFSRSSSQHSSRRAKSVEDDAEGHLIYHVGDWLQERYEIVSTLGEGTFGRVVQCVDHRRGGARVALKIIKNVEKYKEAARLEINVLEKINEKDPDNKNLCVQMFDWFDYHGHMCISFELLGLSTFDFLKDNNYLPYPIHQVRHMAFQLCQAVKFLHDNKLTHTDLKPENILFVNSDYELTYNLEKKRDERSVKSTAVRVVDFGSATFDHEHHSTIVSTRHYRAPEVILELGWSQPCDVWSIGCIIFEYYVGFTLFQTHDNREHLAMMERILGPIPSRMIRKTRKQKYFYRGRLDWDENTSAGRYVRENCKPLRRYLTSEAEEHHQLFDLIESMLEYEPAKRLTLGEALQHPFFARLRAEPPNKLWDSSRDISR
Sequence of MAPKAPK2 (human) (P49137 whole entry, looked up): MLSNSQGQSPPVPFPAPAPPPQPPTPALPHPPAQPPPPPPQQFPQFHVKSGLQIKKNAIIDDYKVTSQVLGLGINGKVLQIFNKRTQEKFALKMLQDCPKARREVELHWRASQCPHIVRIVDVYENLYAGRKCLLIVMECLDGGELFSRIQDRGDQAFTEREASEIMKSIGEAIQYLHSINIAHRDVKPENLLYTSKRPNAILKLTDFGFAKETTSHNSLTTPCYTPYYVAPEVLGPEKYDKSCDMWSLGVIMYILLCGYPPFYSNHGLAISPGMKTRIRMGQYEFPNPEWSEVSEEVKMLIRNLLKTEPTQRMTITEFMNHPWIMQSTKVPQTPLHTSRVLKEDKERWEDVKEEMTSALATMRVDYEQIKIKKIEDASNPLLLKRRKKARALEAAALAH

COc1ccc(Cl)cc1NC(=O)Nc1cc(C)nc2ccccc12
residual activity (CSNK1D (human)): 98.7% | residual activity (CAMK4 (human)): 93.6% | residual activity (FLT3 (human)): 94.4% | residual activity (CDK4 CCND3 (human)): 98.5% | residual activity (AXL (human)): 94% | residual activity (MAP3K11 (human)): 89% | residual activity (HIPK4 (human)): 109% | residual activity (JAK3 JH1 JH2 (human)): 103% | residual activity (INSRR (human)): 100% | residual activity (EGFR (human)): 98% | residual activity (TYRO3 (human)): 98.9% | residual activity (CDK6 CCND1 (human)): 89.8% | residual activity (PRKD1 (human)): 96.6% | residual activity [1]: 96.7% | residual activity (CDC42BPB (human)): 94.4% | residual activity (STK11 (human)): 103% | residual activity (CHUK (human)): 100% | residual activity (MAPKAPK2 (human)): 109% | residual activity (LTK (human)): 87.3% | residual activity (YES1 (human)): 90.1% | residual activity (CLK2 (human)): 97.7% | residual activity (MAP3K3 (human)): 111% | residual activity (CAMK1G (human)): 102% | residual activity (STK10 (human)): 90.9% | residual activity (ABL1 (human)): 99.5% | residual activity (CHEK2 (human)): 101% | residual activity (CLK3 (human)): 97.5% | residual activity (PRKCD (human)): 96.3% | residual activity (AURKC (human)): 99.9% | residual activity (SRPK3 (human)): 104% | residual activity (TGFBR1 (human)): 99.1% | residual activity (MAP2K2 (human)): 94.1% | residual activity (CDK9 CCNT1 (human)): 98.2% | residual activity (TBK1 (human)): 100% | residual activity (EPHA5 (human)): 123% | residual activity (DSTYK (human)): 98.8% | residual activity (PDGFRA (human)): 88.5% | residual activity (PRKX (human)): 98% | residual activity (CSNK1G3 (human)): 95.7% | residual activity (PRKG2 (human)): 105% | residual activity (EPHA7 (human)): 99.7% | residual activity (MAPK9 (human)): 105%

Cc1cncc2cccc(S(=O)(=O)N3CCCN(C(=O)CN)C[C@H]3C)c12
residual activity (CSNK1D (human)): 107% | residual activity (CAMK4 (human)): 90.6% | residual activity (FLT3 (human)): 90.1% | residual activity (CDK4 CCND3 (human)): 105% | residual activity (AXL (human)): 98.8% | residual activity (MAP3K11 (human)): 98.4% | residual activity (HIPK4 (human)): 91.1% | residual activity (JAK3 JH1 JH2 (human)): 93.1% | residual activity (INSRR (human)): 103% | residual activity (EGFR (human)): 98.7% | residual activity (TYRO3 (human)): 98.9% | residual activity (CDK6 CCND1 (human)): 99.8% | residual activity (PRKD1 (human)): 96.7% | residual activity [1]: 105% | residual activity (CDC42BPB (human)): 105% | residual activity (STK11 (human)): 86.5% | residual activity (CHUK (human)): 105% | residual activity (MAPKAPK2 (human)): 103% | residual activity (LTK (human)): 93% | residual activity (YES1 (human)): 92% | residual activity (CLK2 (human)): 102% | residual activity (MAP3K3 (human)): 99.1% | residual activity (CAMK1G (human)): 94.6% | residual activity (STK10 (human)): 42% | residual activity (ABL1 (human)): 99.3% | residual activity (CHEK2 (human)): 96.2% | residual activity (CLK3 (human)): 95.9% | residual activity (PRKCD (human)): 22.4% | residual activity (AURKC (human)): 71.9% | residual activity (SRPK3 (human)): 99.9% | residual activity (TGFBR1 (human)): 100% | residual activity (MAP2K2 (human)): 106% | residual activity (CDK9 CCNT1 (human)): 86.7% | residual activity (TBK1 (human)): 95.7% | residual activity (EPHA5 (human)): 95.1% | residual activity (DSTYK (human)): 105% | residual activity (PDGFRA (human)): 93.5% | residual activity (PRKX (human)): 54.2% | residual activity (CSNK1G3 (human)): 106% | residual activity (PRKG2 (human)): 88.1% | residual activity (EPHA7 (human)): 90.7% | residual activity (MAPK9 (human)): 106%

CC(C)(C)c1cc(C=C(C#N)C#N)cc(Br)c1O
residual activity (CSNK1D (human)): 85.5% | residual activity (CAMK4 (human)): 94.2% | residual activity (FLT3 (human)): 102% | residual activity (CDK4 CCND3 (human)): 96.5% | residual activity (AXL (human)): 103% | residual activity (MAP3K11 (human)): 97.4% | residual activity (HIPK4 (human)): 103% | residual activity (JAK3 JH1 JH2 (human)): 110% | residual activity (INSRR (human)): 103% | residual activity (EGFR (human)): 106% | residual activity (TYRO3 (human)): 110% | residual activity (CDK6 CCND1 (human)): 99.1% | residual activity (PRKD1 (human)): 100% | residual activity [1]: 98% | residual activity (CDC42BPB (human)): 103% | residual activity (STK11 (human)): 85.2% | residual activity (CHUK (human)): 89.7% | residual activity (MAPKAPK2 (human)): 92.3% | residual activity (LTK (human)): 96.5% | residual activity (YES1 (human)): 83% | residual activity (CLK2 (human)): 104% | residual activity (MAP3K3 (human)): 118% | residual activity (CAMK1G (human)): 104% | residual activity (STK10 (human)): 95.4% | residual activity (ABL1 (human)): 59.8% | residual activity (CHEK2 (human)): 104% | residual activity (CLK3 (human)): 122% | residual activity (PRKCD (human)): 83% | residual activity (AURKC (human)): 87.6% | residual activity (SRPK3 (human)): 79.4% | residual activity (TGFBR1 (human)): 103% | residual activity (MAP2K2 (human)): 85.8% | residual activity (CDK9 CCNT1 (human)): 95.4% | residual activity (TBK1 (human)): 90.2% | residual activity (EPHA5 (human)): 106% | residual activity (DSTYK (human)): 105% | residual activity (PDGFRA (human)): 95.4% | residual activity (PRKX (human)): 102% | residual activity (CSNK1G3 (human)): 85.8% | residual activity (PRKG2 (human)): 87.6% | residual activity (EPHA7 (human)): 107% | residual activity (MAPK9 (human)): 103%

Cc1cccc(-c2nc(C(C)(C)C)[nH]c2-c2ccc3c(c2)OCO3)n1
residual activity (CSNK1D (human)): 63.4% | residual activity (CAMK4 (human)): 100% | residual activity (FLT3 (human)): 96.2% | residual activity (CDK4 CCND3 (human)): 102% | residual activity (AXL (human)): 101% | residual activity (MAP3K11 (human)): 96.2% | residual activity (HIPK4 (human)): 107% | residual activity (JAK3 JH1 JH2 (human)): 92.6% | residual activity (INSRR (human)): 95.1% | residual activity (EGFR (human)): 96.4% | residual activity (TYRO3 (human)): 102% | residual activity (CDK6 CCND1 (human)): 95.2% | residual activity (PRKD1 (human)): 92.3% | residual activity [1]: 107% | residual activity (CDC42BPB (human)): 102% | residual activity (STK11 (human)): 91.3% | residual activity (CHUK (human)): 108% | residual activity (MAPKAPK2 (human)): 103% | residual activity (LTK (human)): 99.2% | residual activity (YES1 (human)): 97% | residual activity (CLK2 (human)): 95.2% | residual activity (MAP3K3 (human)): 120% | residual activity (CAMK1G (human)): 98.7% | residual activity (STK10 (human)): 94.5% | residual activity (ABL1 (human)): 100% | residual activity (CHEK2 (human)): 96.4% | residual activity (CLK3 (human)): 104% | residual activity (PRKCD (human)): 104% | residual activity (AURKC (human)): 91.4% | residual activity (SRPK3 (human)): 95.1% | residual activity (TGFBR1 (human)): 35.8% | residual activity (MAP2K2 (human)): 108% | residual activity (CDK9 CCNT1 (human)): 88.5% | residual activity (TBK1 (human)): 91.9% | residual activity (EPHA5 (human)): 95.6% | residual activity (DSTYK (human)): 89.1% | residual activity (PDGFRA (human)): 94.1% | residual activity (PRKX (human)): 95% | residual activity (CSNK1G3 (human)): 102% | residual activity (PRKG2 (human)): 95.9% | residual activity (EPHA7 (human)): 81.6% | residual activity (MAPK9 (human)): 98.2%
